How the values were obtained:
[1] = system: poly-ubiquitinated proteins; test: Poly-ubiquitinated proteins in lumbar SC and MNs of treated G93A mice; format: in vivo; details: 10 mg/kg, day 100
From the text: Ubiquitinated inclusions accumulate in MNs from sALS and fALS patients, and in ALS mice[51]. We characterized poly-ubiquitinated proteins in lumbar SCs protein extracts by 10% denaturating PAGE. Protein extracts from Neuro2a cells treated with the proteasome inhibitor Bortezomib (BTZ), able to increase poly-ubiquitination, were used as an experimental control[52] (Fig. 7a). […] We next scored ubiquitin MFI levels in ventral horn MNs of G93A mice. […] (Fig. 7c and d). We next scored the Golgi apparatus in G93A mice by labeling lumbar sections for the cis-Golgi matrix protein GM130[54]. […] (Fig. 7e).
Fluorescence intensity levels of VPS35, VPS26, CI-MPR, Sortilin, CTSD and Ubiquitin were calculated using NHI-Image J software (US National Institutes of Health) according to the following protocol: stacks of confocal images were used to generate the maximal projections using the Leica Application Suite X (2.0.0.14332) software and then postprocessed by NHI-Image J to crop single NeuN^+ MNs from the ventral horn of the spinal cord. We next performed background (calculated on adjacent slices only receiving secondary antibodies) subtraction for each channel, before applying the NHI-Image J mean filter (with radius 2.0 pixels) to calculate mean NeuN fluorescence levels in individual MNs. […] On this ROI, we measured mean fluoresce levels (MFI) of target proteins.

[2] = system: SOD1^G93A-transfected Neuro2a cells; test: LDH-Glo cytotoxicity assay in SOD1G93A-transfected Neuro2a cells; format: cell-based; details: 10 µM
From the text: Having observed a marked improvement of viability in SOD1^G93A-transfected Neuro2a cells with VPS35 gain of function, we investigated the effect of VPS35 loss of function. We transfected Neuro2a cells with RNAi plasmids encoding a siRNA duplex for VPS35, to knockdown VPS35 and disrupt the retromer assembly. […] By including Sh56 plasmids in the transfection mix, we worsened this phenotype (Fig. 3d). […] We next assayed cytotoxicity by measuring lactate dehydrogenase (LDH) release with a LDH-Glo™ cytotoxicity assay. Cells were treated with plasmids encoding SOD1^G93A and the Sh56-RNAi sequence with or without compound 2a, while supernatants were used to measure LDH contents. Overexpression of SOD1^G93A increased LDH release by Neuro2aA cells, when compared with control cells (Fig. 3e).
LDH cytotoxicity was run on 96-well plates using LDH-Glo™ Cytotoxicity Assay (Promega). Briefly, Neuro2a cells were transfected with plasmids encoding pCMV-LacZ; pcDNA3.1(+)SOD1G93A[77] with or without VPS35 short interfering plasmids (Sh56) or compound 2a (10 µM). […] In each experiment we calculated %cytotoxicity=Exp.LDHrelease−mediumbackground/MaxLDHreleasecontrol−mediumbackground , and we run parallel positive controls treating cells with 200 µM H2O2. […]

VPS26b = test: Western blot for VPS26b in treated Neuro2a cells; format: cell-based; details: 10 µM, 48 h, WB
Description: Compound 2a increases VPS26b and VPS29 in Neuro2a […]
a,WBs forVPS26b, VPS29 and β-Tubulin in vehicle- and compound 2a-treated Neuro2a cells(10 μM, 48h, 3x10^5 cells/well).Quantitative analyses of blots (means ± SD) are shown inhistograms (control:n=4 independent wells, 2a: n=5 independent wells examined in one experiment, p<0.0001 for all the comparisons. Two-tailed Student’s test was used to determine the statisticalsignificanceof data, ***p<0.0001
(1 picture or pasted object on this page, not shown here)

NC(N)=N/N=C/c1cccc(/C=N/N=C(N)N)c1 [compound 2a, phenyl-1,3-bis-guanylhydrazone]
poly-ubiquitinated proteins in lumbar SC extracts (WB) [1]: substantially reduced | ubiquitin MFI levels in ventral horn MNs [1]: vehicle-treated G93A MNs were higher than in compound 2a-treated G93A mice | LDH release ([2]; Neuro2a transfected with SOD1G93A and Sh56 plasmids): high LDH release was observed | LDH release ([2]; SOD1G93A-transfected Neuro2a, 48 h): significantly reduced LDH release | VPS26b protein levels (VPS26b): significantly increased

Reference: PMC7395176, “Retromer stabilization results in neuroprotection in a model of Amyotrophic Lateral Sclerosis” (Nature Communications, 2020)
